Test results reported in US10940139B2, “Compounds that interact with the Ras superfamily for the treatment of cancers, inflammatory diseases, rasopathies, and fibrotic disease” (Shy Therapeutics LLC, priority 2017, dated 2021).

molecular target: KRas G12D/Q61H double mutant (Homo sapiens (Human), UniProt P01116, G12D/Q61H); experiment: Ras GTP binding domain inhibition assay (labeled GTP); conditions: 20 μM; read-out: KRas G12D Q61H % Inh.
Method in brief: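 Ni-plate capture of His-KRas (3-10 μg/ml, o/n, 4° C); Tris pH 7.5/MgCl2/DTT buffer, 1% DMSO. Cpd 20 μM or titration, 3 h RT. Cy3/Cy5-GTP 45 min RT, wash, fluorescence of bound GTP.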

Sequence of KRas G12D/Q61H double mutant (P01116-2 other isoform, or with tags, fused parts or gaps G12D/Q61H): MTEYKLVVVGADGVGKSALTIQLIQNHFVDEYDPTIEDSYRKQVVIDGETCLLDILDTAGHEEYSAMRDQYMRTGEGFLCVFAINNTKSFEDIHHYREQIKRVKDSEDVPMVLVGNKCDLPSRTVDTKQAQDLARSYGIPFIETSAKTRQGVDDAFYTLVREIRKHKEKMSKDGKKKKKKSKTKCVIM

Row | Compound | inhibition at 20 µM
1 | Cc1cccc(C(=O)Nc2nnc(-c3ccccn3)[nH]2)n1 [drawing 2524] | 51 to 75%
2 | CC(Oc1ccc(C#N)cc1)C(=O)Nc1nnc(-c2ccccn2)[nH]1 (stereo not drawn) [drawing 2525] | 51 to 75%
3 | O=C(COc1ccc2c(c1)CCC2)Nc1nnc(-c2ccccn2)[nH]1 [drawing 2526] | 51 to 75%
4 | O=C(Nc1nnc(-c2ccccn2)[nH]1)C1CCCN(c2cnccn2)C1 (stereo not drawn) [drawing 2527] | 51 to 75%
5 | O=C(Nc1nnc(-c2ccccn2)[nH]1)c1ccc(NC(=O)c2ccccn2)cc1 [drawing 2528] | 51 to 75%
6 | COC(=O)c1cncc(C(=O)Nc2nnc(-c3ccccn3)[nH]2)c1 [drawing 2529] | 51 to 75%
7 | CCc1ccccc1OCC(=O)Nc1nnc(-c2ccccn2)[nH]1 [drawing 2530] | 51 to 75%
8 | CC1CCc2sc(C(=O)Nc3nnc(-c4ccccn4)[nH]3)cc2C1 (stereo not drawn) [drawing 2531] | 51 to 75%
9 | Cc1nc(-c2ccccn2)sc1C(=O)Nc1nnc(-c2ccccn2)[nH]1 [drawing 2532] | 51 to 75%
10 | Cc1nc2nc(C(F)(F)F)nn2c(C)c1CC(=O)Nc1nnc(-c2ccccn2)[nH]1 [drawing 2533] | 51 to 75%
11 | COc1cccc(COCC(=O)Nc2nnc(-c3ccccn3)[nH]2)c1 [drawing 2534] | 51 to 75%
12 | COc1ccccc1C1CC1C(=O)Nc1nnc(-c2ccccn2)[nH]1 (stereo not drawn) [drawing 2535] | 51 to 75%
13 | O=C(Cn1c(=O)[nH]c2ccccc21)Nc1nnc(-c2ccccn2)[nH]1 [drawing 2536] | 51 to 75%
14 | CN(CC(=O)Nc1nnc(-c2ccccn2)[nH]1)Cc1ccccc1 [drawing 2537] | 51 to 75%
15 | NC(=O)c1ccc(OCC(=O)Nc2nnc(-c3ccccn3)[nH]2)cc1 [drawing 2538] | 51 to 75%
16 | COc1ccccc1-c1cc(C(=O)Nc2nnc(-c3ccccn3)[nH]2)no1 [drawing 2539] | 51 to 75%
17 | O=C(Nc1nnc(-c2ccccn2)[nH]1)c1cccc(N2CCCS2(=O)=O)c1 [drawing 2540] | 51 to 75%
18 | CC(C)C(=O)Nc1nc(CC(=O)Nc2nnc(-c3ccccn3)[nH]2)cs1 [drawing 2541] | 51 to 75%
19 | CC(C)(C)c1nc(C(=O)Nc2nnc(-c3ccccn3)[nH]2)cs1 [drawing 2543] | 51 to 75%
20 | O=C(Nc1nnc(-c2ccccn2)[nH]1)C1=NOC(c2ccccc2)C1 (stereo not drawn) [drawing 2544] | 51 to 75%
21 | O=C(COc1ccccc1)Nc1nnc(-c2ccccn2)[nH]1 [drawing 2545] | 51 to 75%

Row | Compound | inhibition at 20 µM
22 | O=C(Nc1nnc(-c2ccccn2)[nH]1)c1csc(-c2ccco2)n1 [drawing 2546] | 51 to 75%
23 | O=C(Nc1nnc(-c2ccccn2)[nH]1)C1Cc2cc(Cl)ccc2O1 (stereo not drawn) [drawing 2548] | 51 to 75%
24 | O=C(Cc1ccc2c(c1)OCO2)Nc1nnc(-c2ccccn2)[nH]1 [drawing 2549] | 51 to 75%
25 | O=C(Nc1nnc(-c2ccccn2)[nH]1)c1ccc(Oc2cccnc2)cc1 [drawing 2550] | 51 to 75%
26 | O=C(Cc1ccc2c(c1)OCCO2)Nc1nnc(-c2ccccn2)[nH]1 [drawing 2551] | 51 to 75%
27 | N#CCc1ccc(OCC(=O)Nc2nnc(-c3ccccn3)[nH]2)cc1 [drawing 2552] | 51 to 75%
28 | O=C(Nc1nnc(-c2ccccn2)[nH]1)c1ccc(=O)n(CCOc2ccccc2)n1 [drawing 2553] | 51 to 75%
29 | Cc1cccc(OCC(=O)Nc2nnc(-c3ccccn3)[nH]2)c1 [drawing 2555] | 51 to 75%
30 | O=C(Nc1nnc(-c2ccccn2)[nH]1)C1CCN(C(=O)c2cccs2)CC1 [drawing 2556] | 51 to 75%
31 | COc1cn(-c2ccccc2)nc1C(=O)Nc1nnc(-c2ccccn2)[nH]1 [drawing 2557] | 76 to 100%
32 | CN(CC(=O)Nc1nnc(-c2ccccn2)[nH]1)S(=O)(=O)c1ccccc1 [drawing 2558] | 76 to 100%
33 | O=C(Nc1nnc(-c2ccccn2)[nH]1)c1ccc(=O)[nH]n1 [drawing 2562] | 51 to 75%
34 | COc1ccc(COCC(=O)Nc2nnc(-c3ccccn3)[nH]2)cc1 [drawing 2563] | 51 to 75%
35 | O=C(COCCOc1ccccc1)Nc1nnc(-c2ccccn2)[nH]1 [drawing 2564] | 76 to 100%
36 | O=C(Nc1nc(-c2ccccn2)cs1)C1COc2ccccc2O1 (stereo not drawn) [drawing 2566] | 51 to 75%
37 | O=C(Cn1c(=O)cnc2ccccc21)Nc1nc(-c2ccccn2)cs1 [drawing 2569] | 51 to 75%
38 | O=C(Nc1nc(-c2ccccn2)cs1)c1ccc2nccnc2c1 [drawing 2570] | 51 to 75%
39 | O=C(Nc1nc(-c2ccccn2)cs1)c1ccc2[nH]cnc2c1 [drawing 2571] | 51 to 75%
40 | O=C(Cn1cnc2ccccc2c1=O)Nc1nc(-c2ccccn2)cs1 [drawing 2574] | 25 to 50%
41 | O=C(Nc1nc(-c2ccccn2)cs1)C1CC(=O)N(c2ccc3c(c2)OCCO3)C1 (stereo not drawn) [drawing 2575] | 51 to 75%
42 | O=C(Cc1cccc(F)c1)Nc1nc(-c2ccccn2)cs1 [drawing 2577] | 25 to 50%

Row | Compound | inhibition at 20 µM
43 | O=C(Nc1nc(-c2ccccn2)cs1)c1ccc(F)cc1 [drawing 2579] | 51 to 75%
44 | COc1ccc(-c2csc3[nH]c(-c4ccccn4)nc(=O)c23)cc1 [drawing 2582] | 51 to 75%
45 | O=c1nc(-c2ccccn2)[nH]c2scc(-c3cccs3)c12 [drawing 2583] | 51 to 75%
46 | CNC(=O)c1sc2[nH]c(-c3ccccn3)nc(=O)c2c1C [drawing 2584] | 25 to 50%
47 | Cc1sc2[nH]c(-c3ccccn3)nc(=O)c2c1-c1ccccc1 [drawing 2586] | 51 to 75%
48 | O=c1nc(-c2ccccn2)[nH]c2sc(-c3ccccc3)cc12 [drawing 2588] | 51 to 75%
49 | CCN(CC)C(=O)c1sc2[nH]c(-c3ccccn3)nc(=O)c2c1C [drawing 2589] | 51 to 75%
50 | Cc1c(C(=O)N(C)C)sc2[nH]c(-c3ccccn3)nc(=O)c12 [drawing 2590] | 25 to 50%
51 | O=c1nc(-c2ccccn2)[nH]c2c1sc1ccccc12 [drawing 2592] | 51 to 75%
52 | COc1ccc(NC(=O)CCc2c(C)nc(-c3ccccn3)nc2O)cn1 [drawing 2594] | 51 to 75%
53 | Cc1nc(-c2ccccn2)nc(O)c1CCC(=O)NCCc1cccs1 [drawing 2595] | 25 to 50%
54 | Cc1nc(-c2ccccn2)nc(O)c1CCC(=O)Nc1cc(F)ccc1F [drawing 2596] | 51 to 75%
55 | Cc1nc(-c2ccccn2)nc(O)c1CCC(=O)NC1CCc2ccccc21 (stereo not drawn) [drawing 2597] | 25 to 50%
56 | Cc1nc(-c2ccccn2)nc(O)c1CCC(=O)Nc1ccc(C(C)C)cc1 [drawing 2598] | 51 to 75%
57 | Cc1nc(-c2ccccn2)nc(O)c1CCC(=O)NCC1COc2ccccc2O1 (stereo not drawn) [drawing 2599] | 25 to 50%
58 | COC(=O)c1cc(NC(=O)CCc2c(C)nc(-c3ccccn3)nc2O)ccc1Cl [drawing 2600] | 51 to 75%
59 | Cc1nc(-c2ccccn2)nc(O)c1CCC(=O)Nc1cccc(OCC(=O)N2CCCC2)c1 [drawing 2601] | 25 to 50%
60 | CCN(CC)S(=O)(=O)c1cc(C)c(C)c(NC(=O)CCc2c(C)nc(-c3ccccn3)nc2O)c1 [drawing 2602] | 51 to 75%
61 | CCc1cc(NNC(=O)c2ccc(C#N)cc2)nc(-c2ccccn2)n1 [drawing 2605] | 51 to 75%
62 | COCCCn1ccc(Nc2cc(C)nc(-c3ccccn3)n2)n1 [drawing 2606] | 51 to 75%
63 | Cc1ccc(CN(Cc2ccco2)C(=O)c2oc3ccccc3c2C)cc1 [drawing 2614] | 51 to 75%

Row | Compound | inhibition at 20 µM
64 | Cc1ccc(O)c(CN(C)Cc2nccn2Cc2ccccc2)n1 [drawing 2615] | 51 to 75%
65 | FC(F)(F)Sc1ccc(Cc2ccc(SC(F)(F)F)cc2)cc1 [drawing 2616] | 51 to 75%
66 | CCCCSc1nc(-c2cccs2)c(C(=O)C(F)(F)F)cc1C#N [drawing 2618] | 51 to 75%
67 | CCC(C)(C)c1ccc(OCCCC(=O)NC(C(=O)OC)C(C)C)c(C(C)(C)CC)c1 (stereo not drawn) [drawing 2619] | 25 to 50%
68 | Oc1ccc(C2(c3cccc(Cl)c3)CCCC2)cc1 [drawing 2620] | 25 to 50%
69 | Cc1ccc(-c2ccc(Oc3ccc(C(F)(F)F)cn3)c(C)c2)cc1 [drawing 2621] | 51 to 75%
70 | CCOc1cc(C(=O)Oc2c(C)ccc(C)c2C)cc(OCC)c1OCC [drawing 2622] | 51 to 75%
71 | COC(=O)c1ccc(C(=O)NCC2(c3ccccc3OC)CCCC2)nc1 [drawing 2623] | 25 to 50%
72 | CCOc1cc(S(=O)(=O)N(Cc2ccccc2)Cc2ccccc2)c(OCC)cc1C [drawing 2624] | 25 to 50%
73 | COc1ccc(CN(CC[S+]([O-])c2cc(Cl)ccc2Cl)C2CC2)cc1 (stereo not drawn) [drawing 2625] | 25 to 50%
74 | CCCOc1ccc2ccccc2c1CN(C)S(=O)(=O)N1CC(C)OC(C)C1 (stereo not drawn) [drawing 2626] | 25 to 50%
75 | O=S(=O)(Oc1cc(C(F)(F)F)cc(C(F)(F)F)c1)N1CCc2ccccc2C1 [drawing 2627] | 51 to 75%
76 | COC(=O)C(C)CN(Cc1cc(Br)ccc1[N+](=O)[O-])C1CC1 (stereo not drawn) [drawing 2629] | 25 to 50%
77 | CC(C1CC1)N(CC(F)(F)F)C(=O)Cc1ccc(-c2ccccc2)cc1 (stereo not drawn) [drawing 2630] | 51 to 75%
78 | COC(=O)C(C)CN(Cc1ccccc1)c1nc(C(F)(F)F)ccc1C#N (stereo not drawn) [drawing 2631] | 25 to 50%
79 | N#CC1(c2ccc(C(=O)N3CCCC3CO)cc2)CC1 (stereo not drawn) [drawing 2632] | 76 to 100%
80 | CCN(CC)S(=O)(=O)c1ccc(NCCOC)c(C(=O)NCCSCc2ccc(C)cc2)c1 [drawing 2633] | 25 to 50%
81 | CSc1nc(C2CC2)cc(C(=O)NCCc2ccc(S(=O)(=O)NC(=O)c3cc(C4CC4)nc(SC)c3C#N)cc2)c1C#N [drawing 2634] | 51 to 75%
82 | CC(C)C1=C(O)C2(CC2c2ccc(-c3ccccc3)cc2)C(C)CC1 (stereo not drawn) [drawing 2635] | 25 to 50%

same assay, conditions: read-out: KRas G12D Q61H IC50

Row | Compound | IC50
83 | Cc1cccc(OCC(=O)Nc2nnc(-c3ccccn3)[nH]2)c1 [drawing 2555] | 5 to 10 µM
84 | O=c1nc(-c2ccccn2)[nH]c2c1sc1ccccc12 [drawing 2592] | 11 to 30 µM
